In ChEMBL document CHEMBL1201862, “PubChem BioAssay data set” (2004):
Activity calls are given as the source filed them.

Experiments:
Prothrombin = Prothrombin (Bos taurus, UniProt P00735); assay: thrombin protease inhibitors – biochemical, fluorescence polarization, uHTS hits, dose response (AID 602369); assay type: functional
[1] = target: 26S proteasome non-ATPase regulatory subunit 14 (Homo sapiens, UniProt O00487); assay: inhibition of proteasome subunit RPN11 – biochemical, fluorescence polarization, uHTS hits, confirmation (AID 602368); assay type: functional
[2] = target: 72 kDa type IV collagenase (Homo sapiens, UniProt P08253); assay: Dose Response validation of uHTS RPN11 inhibitor hits using a MMP-2 Fluorescence assay.; assay type: functional
[3] = target: T1, Microphthalmia-associated transcription factor (Homo sapiens, UniProt O75030); assay: reducers of TRPM1 reporter luminescence, concentration series – cell-based, SK-MEL-5, cherry-picked, set 3, MITF inhibitor project, dose response (AID 493073); assay type: functional;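 note: SK-MEL-5 melanoma cells with luciferase driven by the MITF target TRPM1 promoter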
T1 sequence (O75030 whole entry): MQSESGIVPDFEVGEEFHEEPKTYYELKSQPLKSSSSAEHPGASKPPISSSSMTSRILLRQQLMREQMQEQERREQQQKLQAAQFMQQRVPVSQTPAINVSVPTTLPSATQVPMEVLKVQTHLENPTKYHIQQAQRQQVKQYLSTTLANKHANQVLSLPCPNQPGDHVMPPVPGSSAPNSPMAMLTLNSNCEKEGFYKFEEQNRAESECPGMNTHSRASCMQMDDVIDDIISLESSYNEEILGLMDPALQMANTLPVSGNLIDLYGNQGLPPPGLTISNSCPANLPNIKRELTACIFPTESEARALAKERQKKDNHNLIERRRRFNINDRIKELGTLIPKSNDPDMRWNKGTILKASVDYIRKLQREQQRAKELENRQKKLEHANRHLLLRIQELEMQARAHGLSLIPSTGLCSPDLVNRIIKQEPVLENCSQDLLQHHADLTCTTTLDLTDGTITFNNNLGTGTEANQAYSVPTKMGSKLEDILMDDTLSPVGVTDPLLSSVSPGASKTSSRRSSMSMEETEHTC

[4] = reduction of Shn3 3'UTR-driven luciferase in osteoblasts – cell-based, Clone20 osteoblasts, firefly luciferase, cherry-picked, dose response (AID 624132); assay type: functional;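 note: firefly luciferase luminescence from reporter carrying the Shn3 3'UTR in osteoblasts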
H4 [5] = assay: inhibitors of control reporter signal in H4 cells – cell-based, plate reader, dry powder samples, counter-screen for prion reporter project, dose response (AID 540255); assay type: functional; conditions: Homo sapiens
H4 [6] = assay: Inhibitors of Prion Protein 5' UTR mRNA Measured in Cell-Based System Using Plate Reader - 2078-01_Inhibitor_Dose_DryPowder_Activity. [Related pubchem assays (depositor defined):AID488894]; assay type: functional; conditions: Homo sapiens
[7] = HEK-293T viability loss after treatment – luminescence, T-cell screen hits, cytotoxicity control for TCR NF-kB inhibitor project, dose response (AID 489026); assay type: functional, cell-based;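 note: cells exposed to compound about 14 hours before the viability readout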
[8] = target: Luciferin 4-monooxygenase (Photinus pyralis, UniProt P08659); assay: inhibition of purified Photinus pyralis luciferase – biochemical, dry powder samples, plate reader, dose response (AID 588451)
[9] = target: T2, Heat shock factor protein 1 (Mus musculus, UniProt P38532); assay: decrease of HSF1-responsive luciferase luminescence – cell-based, NIH3T3, dose retest, confirmation (AID 2382); assay type: functional;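 note: NIH3T3 fibroblasts with HSF1-driven luciferase reporter stressed by proteasome inhibitor MG132; luminescence from HSF1-driven luciferase expression after 8 hours of MG132 stress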
T2 sequence (P38532 whole entry): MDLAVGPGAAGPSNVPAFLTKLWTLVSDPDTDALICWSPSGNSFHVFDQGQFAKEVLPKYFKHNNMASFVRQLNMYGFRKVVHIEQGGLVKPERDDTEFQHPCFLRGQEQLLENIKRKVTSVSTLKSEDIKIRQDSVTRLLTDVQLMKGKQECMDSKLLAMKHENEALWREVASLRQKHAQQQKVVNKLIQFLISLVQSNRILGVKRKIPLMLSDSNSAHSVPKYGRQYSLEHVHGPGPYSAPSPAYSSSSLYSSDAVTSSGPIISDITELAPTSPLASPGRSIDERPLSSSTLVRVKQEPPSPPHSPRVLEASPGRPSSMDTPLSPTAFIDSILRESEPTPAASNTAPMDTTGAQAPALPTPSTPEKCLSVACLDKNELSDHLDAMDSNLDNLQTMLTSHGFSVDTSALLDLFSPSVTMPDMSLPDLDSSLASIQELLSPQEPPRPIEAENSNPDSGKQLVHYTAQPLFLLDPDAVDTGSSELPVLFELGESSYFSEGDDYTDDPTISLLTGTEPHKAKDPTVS

H4 [10] = assay: Amyloid Precursor 5' UTR neuroblastoma cell reporter line Measured in Cell-Based System Using Plate Reader - 2078-04_Inhibitor_Dose_DryPowder_Activity. [Related pubchem assays (depositor defined):AID488894]; assay type: functional; conditions: Homo sapiens
[11] = target: T3, Orexin/Hypocretin receptor type 1 (Homo sapiens, UniProt O43613); assay: Homogeneous Time Resolved Fluorescence (HTRF)-based cell-based high throughput dose response assay for antagonists of the orexin 1 receptor (OX1R; HCRTR1). [Related pubchem assays (depositor defined):AID434989, AID435008, AID463079, AID485270, AID492963, AID492964, AID492965, AID493232, AID504717, AID504718]; assay type: functional
[12] = target: T3, Orexin/Hypocretin receptor type 1; assay: Fluorescence-based cell-based high throughput dose response assay for antagonists of the orexin 1 receptor (OX1R; HCRTR1). [Related pubchem assays (depositor defined):AID434989, AID435008, AID463079, AID485270, AID492963, AID492964, AID492965, AID493232, AID504717, AID504718]; assay type: functional
Orexin receptor type 2 [13] = target: T4, Orexin receptor type 2 (Homo sapiens, UniProt O43614); assay: Counterscreen assay for antagonists of the orexin 1 receptor (OX1R; HCRTR1): Fluorescence-based cell-based dose response assay for antagonists of the orexin 2 receptor (OX2R; HCRTR2), run by assay provider.; assay type: functional
Orexin receptor type 2 [14] = target: T4, Orexin receptor type 2; assay: Counterscreen assay for antagonists of the orexin 1 receptor (OX1R; HCRTR1): Homogeneous Time Resolved Fluorescence (HTRF)-based cell-based dose response assay for antagonists of the orexin 2 receptor (OX2R; HCRTR2), run by assay provider.; assay type: functional
[15] = Counterscreen for antagonists of the orexin 1 receptor (OX1R; HCRTR1): Fluorescence-based cell-based high throughput dose response assay to identify antagonists of the parental CHO cell line. [Related pubchem assays (depositor defined):AID434989, AID435008, AID463079, AID485270, AID492963, AID492964, AID492965, AID493232, AID504699, AID504701]; assay type: functional
CHO-K1 = assay: Counterscreen for antagonists of the orexin 1 receptor (OX1R; HCRTR1): Homogeneous time resolved fluorescence (HTRF)-based cell-based dose response assay to identify antagonists of the parental CHO-K1 cell line. [Related pubchem assays (depositor defined):AID434989, AID435008, AID463079, AID485270, AID492963, AID492964, AID492965, AID493232, AID504699, AID504701]; assay type: functional; conditions: Cricetulus griseus;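 note: potency for inhibition of ATP-stimulated IP1 production as antagonists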
[16] = target: Serine/threonine-protein kinase pim-1 (Homo sapiens, UniProt P11309); assay type: functional
[17] = target: Serine/threonine-protein kinase pim-3 (Homo sapiens, UniProt Q86V86); assay type: functional;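 note: value obtained as one member of a broad kinase panel profiling effort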
[18] = target: Serine/threonine-protein kinase 17A (Homo sapiens, UniProt Q9UEE5); assay type: functional
Aurora kinase B = Aurora kinase B (Homo sapiens, UniProt Q96GD4); assay type: functional
[19] = target: DNA dC->dU-editing enzyme APOBEC-3G (Homo sapiens, UniProt Q9HC16); assay: inhibition of APOBEC3G ssDNA deamination – biochemical, fluorescence, single-stranded DNA substrate, SAR follow-up (AID 602136); assay type: functional; conditions: read-out: IC50_Mean
[20] = target: DNA dC->dU-editing enzyme APOBEC-3A (Homo sapiens, UniProt P31941); assay: SAR analysis of small molecule inhibitors of APOBEC3A DNA Deaminase via a fluorescence-based single-stranded DNA deaminase assay.; assay type: functional; conditions: read-out: IC50_Mean
[21] = target: T5, Neuropeptides B/W receptor type 1 (Homo sapiens, UniProt P48145); assay: human NPBW1 receptor blockade, IC50 – cell-based, fluorescence, dose response, set 5, late-stage follow-up (AID 588566); assay type: functional
T5 sequence (P48145 whole entry): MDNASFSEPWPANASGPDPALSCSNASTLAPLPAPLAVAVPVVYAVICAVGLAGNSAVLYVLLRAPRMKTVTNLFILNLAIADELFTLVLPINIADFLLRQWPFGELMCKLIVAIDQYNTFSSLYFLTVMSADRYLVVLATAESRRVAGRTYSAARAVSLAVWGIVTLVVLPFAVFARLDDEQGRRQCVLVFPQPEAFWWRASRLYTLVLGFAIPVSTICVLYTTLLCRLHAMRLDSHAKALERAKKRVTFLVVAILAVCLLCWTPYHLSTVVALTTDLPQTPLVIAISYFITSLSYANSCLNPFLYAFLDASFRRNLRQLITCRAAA

[22] = target: Melanin-concentrating hormone receptor 1 (Homo sapiens, UniProt Q99705); assay: Late-stage fluorescence-based counterscreen for antagonists of the G-protein coupled receptor 7 (GPR7): cell-based dose response assay to identify antagonists of the melanin-concentrating hormone receptor 1 (MCHR1) Set 5.; assay type: functional
[23] = target: Cyclin-dependent kinase 19 (Homo sapiens, UniProt Q9BWU1); assay: Navigating the Kinome. Panel member name: CDC2L6; assay type: functional
[24] = target: Cell division cycle 7-related protein kinase (Homo sapiens, UniProt O00311); assay type: functional;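 note: value obtained from a kinome-wide kinase panel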
[25] = target: T6, High affinity choline transporter 1 (Homo sapiens, UniProt Q9GZV3); assay: human choline transporter blockers, potency – cell-based, 10-point CRC, membrane potential dye, dose response (AID 588401); assay type: functional;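 note: membrane potential dye fluorescence of choline-evoked depolarization via CHT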
T6 sequence (Q9GZV3 whole entry): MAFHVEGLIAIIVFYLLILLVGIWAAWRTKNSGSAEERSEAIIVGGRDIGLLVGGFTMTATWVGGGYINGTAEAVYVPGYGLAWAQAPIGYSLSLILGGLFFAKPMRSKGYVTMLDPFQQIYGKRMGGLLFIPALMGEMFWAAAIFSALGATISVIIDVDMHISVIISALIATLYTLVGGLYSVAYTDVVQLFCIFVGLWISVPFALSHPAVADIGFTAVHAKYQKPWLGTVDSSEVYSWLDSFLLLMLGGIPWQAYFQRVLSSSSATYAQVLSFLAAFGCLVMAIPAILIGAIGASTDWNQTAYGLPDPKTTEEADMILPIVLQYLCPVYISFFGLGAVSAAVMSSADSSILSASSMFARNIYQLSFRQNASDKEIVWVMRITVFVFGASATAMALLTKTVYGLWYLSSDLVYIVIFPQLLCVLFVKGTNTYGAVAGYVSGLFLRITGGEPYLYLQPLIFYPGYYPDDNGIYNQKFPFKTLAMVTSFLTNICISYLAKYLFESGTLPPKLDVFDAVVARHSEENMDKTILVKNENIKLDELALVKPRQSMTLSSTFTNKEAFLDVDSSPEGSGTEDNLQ

Procathepsin L = Procathepsin L (Homo sapiens, UniProt P07711)
[26] = target: T6, High affinity choline transporter 1; assay: human choline transporter blockers, potency – cell-based, 5-point CRC, membrane potential dye, dose response (AID 504840); assay type: functional
SN12K1 = assay: cells; assay type: functional; conditions: Homo sapiens
Aspartyl aminopeptidase = Aspartyl aminopeptidase (Plasmodium falciparum 3D7, UniProt Q8I2J3)
P388/ADR = assay: cells; assay type: functional; conditions: Mus musculus
P388 = assay: cells; assay type: functional; conditions: Mus musculus

T3 sequence (O43613 whole entry): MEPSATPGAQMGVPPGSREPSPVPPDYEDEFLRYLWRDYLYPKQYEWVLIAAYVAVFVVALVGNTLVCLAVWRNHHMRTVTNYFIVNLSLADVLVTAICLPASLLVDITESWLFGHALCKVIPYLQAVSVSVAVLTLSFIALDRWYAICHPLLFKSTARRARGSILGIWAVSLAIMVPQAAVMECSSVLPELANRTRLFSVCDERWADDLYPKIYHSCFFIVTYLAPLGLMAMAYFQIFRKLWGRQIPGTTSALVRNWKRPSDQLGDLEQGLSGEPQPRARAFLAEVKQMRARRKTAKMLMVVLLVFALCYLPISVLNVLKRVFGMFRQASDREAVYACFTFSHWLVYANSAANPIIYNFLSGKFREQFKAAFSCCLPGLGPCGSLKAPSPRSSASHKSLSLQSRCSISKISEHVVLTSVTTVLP
T4 sequence (O43614 whole entry): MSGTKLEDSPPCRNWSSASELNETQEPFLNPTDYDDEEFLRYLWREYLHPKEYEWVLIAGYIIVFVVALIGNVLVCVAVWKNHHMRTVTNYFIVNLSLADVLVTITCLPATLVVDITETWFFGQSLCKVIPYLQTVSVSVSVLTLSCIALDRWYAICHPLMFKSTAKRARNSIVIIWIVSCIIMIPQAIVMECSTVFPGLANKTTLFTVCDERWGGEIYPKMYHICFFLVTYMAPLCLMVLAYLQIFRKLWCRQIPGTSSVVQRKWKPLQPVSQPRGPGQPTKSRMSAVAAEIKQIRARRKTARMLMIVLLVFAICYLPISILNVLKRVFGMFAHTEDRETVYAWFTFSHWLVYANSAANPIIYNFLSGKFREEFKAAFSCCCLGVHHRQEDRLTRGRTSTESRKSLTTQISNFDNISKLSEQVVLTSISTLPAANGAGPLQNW
26S proteasome non-ATPase regulatory subunit 14, sequence (O00487 whole entry): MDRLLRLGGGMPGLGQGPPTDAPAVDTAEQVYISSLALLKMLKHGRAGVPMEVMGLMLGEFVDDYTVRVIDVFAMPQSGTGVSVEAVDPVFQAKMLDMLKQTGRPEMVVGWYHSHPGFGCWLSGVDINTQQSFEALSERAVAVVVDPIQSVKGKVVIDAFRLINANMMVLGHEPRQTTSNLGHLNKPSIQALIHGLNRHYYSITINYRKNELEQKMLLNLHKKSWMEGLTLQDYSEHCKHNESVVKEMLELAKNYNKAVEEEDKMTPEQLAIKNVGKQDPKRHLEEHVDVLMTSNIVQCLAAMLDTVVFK
Cell division cycle 7-related protein kinase, sequence (O00311 whole entry): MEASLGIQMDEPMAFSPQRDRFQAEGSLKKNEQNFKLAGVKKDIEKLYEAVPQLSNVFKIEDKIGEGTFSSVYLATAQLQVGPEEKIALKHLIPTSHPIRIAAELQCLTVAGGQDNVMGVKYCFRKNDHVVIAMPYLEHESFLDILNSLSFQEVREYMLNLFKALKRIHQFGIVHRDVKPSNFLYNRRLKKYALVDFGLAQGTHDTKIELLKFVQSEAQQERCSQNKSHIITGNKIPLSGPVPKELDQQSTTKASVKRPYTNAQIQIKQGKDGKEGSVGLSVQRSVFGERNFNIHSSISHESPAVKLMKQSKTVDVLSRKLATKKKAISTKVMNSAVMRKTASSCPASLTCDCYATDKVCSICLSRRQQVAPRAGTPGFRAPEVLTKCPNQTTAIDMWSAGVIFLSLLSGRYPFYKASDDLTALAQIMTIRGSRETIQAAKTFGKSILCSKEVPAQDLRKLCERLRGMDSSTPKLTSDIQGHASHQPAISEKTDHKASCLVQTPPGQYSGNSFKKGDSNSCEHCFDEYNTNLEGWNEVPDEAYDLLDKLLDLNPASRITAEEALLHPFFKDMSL
72 kDa type IV collagenase, sequence (P08253 whole entry): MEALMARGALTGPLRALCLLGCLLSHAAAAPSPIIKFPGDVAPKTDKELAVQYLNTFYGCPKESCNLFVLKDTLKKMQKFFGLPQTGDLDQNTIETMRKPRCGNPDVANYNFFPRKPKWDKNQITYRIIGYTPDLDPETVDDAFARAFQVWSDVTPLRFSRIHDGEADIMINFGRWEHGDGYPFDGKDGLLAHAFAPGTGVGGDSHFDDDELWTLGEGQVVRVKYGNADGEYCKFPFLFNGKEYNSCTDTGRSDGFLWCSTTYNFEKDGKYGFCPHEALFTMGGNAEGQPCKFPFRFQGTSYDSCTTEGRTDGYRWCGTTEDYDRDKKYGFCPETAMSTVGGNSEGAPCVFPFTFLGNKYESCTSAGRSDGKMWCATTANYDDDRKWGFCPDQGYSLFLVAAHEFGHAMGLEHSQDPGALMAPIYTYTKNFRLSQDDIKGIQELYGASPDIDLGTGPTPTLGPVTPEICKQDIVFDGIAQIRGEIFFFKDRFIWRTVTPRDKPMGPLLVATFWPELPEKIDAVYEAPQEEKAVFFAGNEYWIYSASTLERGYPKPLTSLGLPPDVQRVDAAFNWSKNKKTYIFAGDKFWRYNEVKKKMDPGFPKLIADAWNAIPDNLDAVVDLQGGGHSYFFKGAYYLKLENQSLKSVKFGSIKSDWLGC
Serine/threonine-protein kinase 17A, sequence (Q9UEE5 whole entry): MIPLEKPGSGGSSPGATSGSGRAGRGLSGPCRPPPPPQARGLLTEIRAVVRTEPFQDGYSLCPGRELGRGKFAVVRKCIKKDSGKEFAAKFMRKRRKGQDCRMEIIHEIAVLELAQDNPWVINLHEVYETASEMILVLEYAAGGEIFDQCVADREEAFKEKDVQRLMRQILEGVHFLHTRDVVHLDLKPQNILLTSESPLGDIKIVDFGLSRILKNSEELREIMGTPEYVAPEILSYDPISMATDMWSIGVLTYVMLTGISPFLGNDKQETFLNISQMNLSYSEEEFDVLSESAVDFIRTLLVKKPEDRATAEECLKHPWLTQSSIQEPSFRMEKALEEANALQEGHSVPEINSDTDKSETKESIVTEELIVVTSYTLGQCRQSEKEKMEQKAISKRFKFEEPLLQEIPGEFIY
Procathepsin L, sequence (P07711 whole entry): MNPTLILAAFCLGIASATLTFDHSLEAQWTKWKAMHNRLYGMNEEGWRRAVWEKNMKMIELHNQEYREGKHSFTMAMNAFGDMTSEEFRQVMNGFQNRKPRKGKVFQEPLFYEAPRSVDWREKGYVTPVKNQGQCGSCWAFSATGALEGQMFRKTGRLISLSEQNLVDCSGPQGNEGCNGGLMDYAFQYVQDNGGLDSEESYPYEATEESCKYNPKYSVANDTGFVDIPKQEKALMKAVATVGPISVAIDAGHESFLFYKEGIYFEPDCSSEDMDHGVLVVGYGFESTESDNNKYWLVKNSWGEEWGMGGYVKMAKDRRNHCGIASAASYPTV
DNA dC->dU-editing enzyme APOBEC-3G, sequence (Q9HC16 whole entry): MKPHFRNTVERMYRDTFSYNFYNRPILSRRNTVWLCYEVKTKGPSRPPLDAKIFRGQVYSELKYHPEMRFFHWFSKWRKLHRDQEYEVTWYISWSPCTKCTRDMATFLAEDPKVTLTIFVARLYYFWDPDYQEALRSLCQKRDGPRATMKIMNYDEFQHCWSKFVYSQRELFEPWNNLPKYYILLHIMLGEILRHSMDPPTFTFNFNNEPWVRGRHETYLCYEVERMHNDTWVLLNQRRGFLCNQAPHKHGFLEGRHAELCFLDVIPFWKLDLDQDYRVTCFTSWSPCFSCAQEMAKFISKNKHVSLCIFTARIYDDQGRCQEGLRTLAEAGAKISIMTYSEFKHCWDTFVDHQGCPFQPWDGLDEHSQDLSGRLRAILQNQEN
Luciferin 4-monooxygenase, sequence (P08659 whole entry): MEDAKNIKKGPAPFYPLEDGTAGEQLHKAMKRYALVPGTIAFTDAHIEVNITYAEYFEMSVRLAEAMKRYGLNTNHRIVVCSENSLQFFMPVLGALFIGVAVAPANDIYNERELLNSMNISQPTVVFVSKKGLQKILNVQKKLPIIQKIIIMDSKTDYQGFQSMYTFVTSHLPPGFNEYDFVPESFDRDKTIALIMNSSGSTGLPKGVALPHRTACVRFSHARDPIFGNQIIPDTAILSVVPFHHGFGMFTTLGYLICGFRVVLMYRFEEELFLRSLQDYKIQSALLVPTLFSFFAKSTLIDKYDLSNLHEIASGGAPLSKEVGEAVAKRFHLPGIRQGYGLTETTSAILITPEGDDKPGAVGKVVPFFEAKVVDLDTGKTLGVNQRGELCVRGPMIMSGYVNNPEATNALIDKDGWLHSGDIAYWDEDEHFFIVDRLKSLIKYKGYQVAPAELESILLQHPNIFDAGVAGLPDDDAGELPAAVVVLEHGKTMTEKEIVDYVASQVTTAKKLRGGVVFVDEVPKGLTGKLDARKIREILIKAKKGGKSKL
Serine/threonine-protein kinase pim-1, sequence (P11309 whole entry): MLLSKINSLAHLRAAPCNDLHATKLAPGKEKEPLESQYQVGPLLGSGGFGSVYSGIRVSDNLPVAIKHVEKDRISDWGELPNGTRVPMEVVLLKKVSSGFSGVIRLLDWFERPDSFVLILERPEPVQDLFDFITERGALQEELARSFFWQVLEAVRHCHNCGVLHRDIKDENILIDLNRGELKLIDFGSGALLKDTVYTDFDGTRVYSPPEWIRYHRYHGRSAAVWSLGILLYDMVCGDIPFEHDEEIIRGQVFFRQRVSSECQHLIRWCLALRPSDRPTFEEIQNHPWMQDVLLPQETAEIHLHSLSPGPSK
DNA dC->dU-editing enzyme APOBEC-3A, sequence (P31941 whole entry): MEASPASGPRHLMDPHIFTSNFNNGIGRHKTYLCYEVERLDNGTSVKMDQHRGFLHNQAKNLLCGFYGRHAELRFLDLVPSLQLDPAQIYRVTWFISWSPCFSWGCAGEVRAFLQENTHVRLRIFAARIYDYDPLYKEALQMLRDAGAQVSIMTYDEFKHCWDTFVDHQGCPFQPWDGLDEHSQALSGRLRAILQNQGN

Cc1ccc(-n2c(-c3ccco3)nc3nc4ccccc4nc32)cc1
IC50 (Prothrombin): 69 µM (active)
IC50 [1]: 24.1 µM (active)
IC50 [2]: > 100 µM (inactive)

Cc1ccc(NC(=O)c2cc3ccccc3oc2=O)cc1S(=O)(=O)N(C)C
AC50 [3]: 0.03 µM (active)
AC50 [4]: 1.29 µM (active)
AC50 (H4 [5]): < 0.02 µM (active)
AC50 (H4 [6]): 0.011 µM (active)
IC50 [7]: > 80 µM (inactive)
AC50 [8]: 0.0893 µM (active)
EC50 [9]: < 0.16 µM (active)
AC50 (H4 [10]): 0.00125 µM (active)

O=C(c1cccc(N2CCNC2=O)c1)N1CCCC(Nc2cccc(F)c2)C1 (centres undefined)
IC50 [11]: 0.922 µM (active)
IC50 [12]: 9.83 µM (active)
IC50 (Orexin receptor type 2 [13]): > 88.8 µM (inactive)
IC50 (Orexin receptor type 2 [14]): > 50 µM (inactive)
IC50 [15]: > 49.7 µM (inactive)
IC50 (CHO-K1): > 66.2 µM (inactive)

NC(=O)c1ccc2c(ccn2-c2cccc(Cl)c2)c1
Ki [16]: 3.98 µM (active)
Ki [17]: 3.98 µM (active)

CN(C)CC(=O)Nc1n[nH]c2cc(-c3cn(Cc4ccccc4)nn3)ccc12
Ki [18]: 1 µM (active)
Ki (Aurora kinase B): 3.16 µM (active)

Clc1cnc2[nH]c(SCc3nnc(-c4cccs4)o3)nc2c1
IC50 [19]: 20.6 µM (inactive)
IC50 [20]: > 99 µM (inactive)

COc1ccc(Sc2cnn(Cc3cccc4ccccc34)c(=O)c2Cl)cc1
IC50 [21]: 1.19 µM (active)
IC50 [22]: 18.7 µM (inactive)

O=c1cc(-c2ccncc2)[nH]n1-c1ccc([N+](=O)[O-])cc1
Ki [23]: > 100 µM (inactive)
Ki [24]: 0.501 µM (active)

O=CN/C=C/c1cc(O)ccc1O [ERBSTATIN]
IC50 [25]: 0.751 µM (active)
IC50 (Procathepsin L): > 59.6 µM (not active)
IC50 [26]: 4.17 µM (active)
GI50 (SN12K1): 16.2 µM (inactive)
IC50 (Aspartyl aminopeptidase): 3.72 µM (active)
GI50 (P388/ADR): 2.02 µM (inactive)
GI50 (P388): 2.1 µM (inactive)
